Our source for the MIC and Activity values is ChEMBL document CHEMBL5584268, “Dactylfungins and Tetralones: Bioactive Metabolites from a Nematode-Associated Laburnicola nematophila” (J Nat Prod, 2024).

Values after ≈ are worked out from the molar mass of the structure shown. Active and inactive are the calls of the source. The calls are words filed in the database; no cut-off is given here.

For series [1], the system named is Rhodotorula glutinis. In words: Antimicrobial activity against Rhodotorula glutinis DSM 10134 measured after 72 hrs by serial dilution assay. The class given is functional.
The subject of series [2] is Aspergillus fumigatus. In words: Antimicrobial activity against azole-resistant Aspergillus fumigatus CCF 6651 measured after 72 hrs by serial dilution assay. The class given is functional.
Series [3] concerns Mucor plumbeus. In words: Antimicrobial activity against Mucor plumbeus CCF 2612 measured after 48 hrs by serial dilution assay. The class given is functional.
For series [4], the system named is Aspergillus fumigatus. In words: Antimicrobial activity against Aspergillus fumigatus CCF 3522 measured after 48 hrs by serial dilution assay. The class given is functional.
The subject of series [5] is Cryptococcus neoformans. In words: Antimicrobial activity against Cryptococcus neoformans CCF 1081 measured after 48 hrs by serial dilution assay. The class given is functional.
For series [6], the system named is Aspergillus fumigatus. In words: Antimicrobial activity against azole-resistant Aspergillus fumigatus CCF 6674 measured after 72 hrs by serial dilution assay. The format is functional.
The subject of series [7] is Aspergillus fumigatus. In words: Antimicrobial activity against Aspergillus fumigatus ATCC 204305 measured after 72 hrs by serial dilution assay. The format is functional.
In series [8] the test system is Staphylococcus aureus. In words: Antimicrobial activity against Staphylococcus aureus DSM 346 measured after 72 hrs by serial dilution assay. The format is functional.
The test system of another series is KB 3-1. In words: Cytotoxicity against human KB-3-1 cells by MTT assay. The class given is functional, cell-based.
Series [9] has as its system Staphylococcus aureus. In words: Antimicrobial activity against Staphylococcus aureus DSM 346 up to 67 ug/ml measured after 72 hrs by serial dilution assay. The class given is functional, organism-based. Conditions: dose <= 67.0 µg/ml.
Another series relates to Caenorhabditis elegans. In words: Nematicidal activity against Caenorhabditis elegans at 10 to 100 ug/ml incubated for 18 hrs by stereomicroscopic analysis. The class given is functional, organism-based. Conditions: dose 10-100 µg/ml.
The test system of series [10] is Rhodotorula glutinis. In words: Antimicrobial activity against Rhodotorula glutinis DSM 10134 up to 67 ug/ml measured after 72 hrs by serial dilution assay. The class given is functional, organism-based. Conditions: dose <= 67.0 µg/ml.
For another series, the system named is L929. In words: Cytotoxicity against mouse L929 cells by MTT assay. The class given is toxicity, cell-based.
Series [11] deals with Mucor plumbeus. In words: Antimicrobial activity against Mucor plumbeus CCF 2612 up to 67 ug/ml measured after 48 hrs by serial dilution assay. The format is functional, organism-based. The note with it: dose <= 67.0 µg/ml.
Series [12] concerns Aspergillus fumigatus. In words: Antimicrobial activity against azole-resistant Aspergillus fumigatus CCF 6651 up to 67 ug/ml measured after 72 hrs by serial dilution assay. The class given is functional, organism-based. The note with it: dose <= 67.0 µg/ml.
Series [13] deals with Candida albicans. In words: Antimicrobial activity against Candida albicans CCM 8215 up to 67 ug/ml measured after 12 hrs by serial dilution assay. The format is functional, organism-based. Conditions: dose <= 67.0 µg/ml.
In series [14] the test system is Cryptococcus neoformans. In words: Antimicrobial activity against Cryptococcus neoformans CCF 1081 up to 67 ug/ml measured after 48 hrs by serial dilution assay. The format is functional, organism-based. The note with it: dose <= 67.0 µg/ml.
Series [15] has as its system Candida albicans. In words: Antimicrobial activity against Candida albicans CCM 8215 measured after 12 hrs by serial dilution assay. The format is functional.

As to NYSTATIN, the MIC in the series with Rhodotorula glutinis [1] worked out at 4.2 µg/mL.

With `C[C@@H]1[C@H](O)[C@@H](C)/C=C/C=C/C=C/C=C/C=C/C=C/C=C/[C@H](O[C@@H]2O[C@H](C)[C@@H](O)[C@H](N)[C@@H]2O)C[C@@H]2O[C@](O)(C[C@@H](O)C[C@@H](O)[C@H](O)CC[C@@H](O)C[C@@H](O)CC(=O)O[C@H]1C)C[C@H](O)[C@H]2C(=O)O` [AMPHOTERICIN B], the MIC against Aspergillus fumigatus [2] amounted to 0.16 µg/mL (≈ 0.173 µM); against Mucor plumbeus [3], 0.31 µg/mL (≈ 0.335 µM); against Aspergillus fumigatus [4], 0.31 µg/mL (≈ 0.335 µM); in the series with Cryptococcus neoformans [5], 2.5 µg/mL (≈ 2.71 µM); against Aspergillus fumigatus [6], 2.5 µg/mL (≈ 2.71 µM); in the series with Aspergillus fumigatus [7], 0.31 µg/mL (≈ 0.335 µM).

GENTAMICIN registered an MIC against Staphylococcus aureus [8] of 0.21 µg/mL.

Regarding `COc1cc2c(c(O)c1Cc1c(O)c(O)c3cc(C)oc(=O)c3c1O)C(=O)CC[C@H]2O`, the result with KB 3-1 was Active. In addition, the outcome in the series on Staphylococcus aureus [9], in the series with Caenorhabditis elegans and with Rhodotorula glutinis [10] was inactive. Further, the Activity entry in the series on L929 was “Toxic”.

As to `COc1cc2c(c(O)c1/C=C/C(C)=O)C(=O)CC[C@H]2O`, the outcome in the series with KB 3-1 was Active. The result with Staphylococcus aureus [9], in the series with Caenorhabditis elegans and in the series on Rhodotorula glutinis [10] was inactive. For the same molecule, in the series on L929, the Activity entry is “Toxic”.

With `CC[C@H](C)[C@H](O)[C@@H](C)/C=C(C)/C=C/C[C@H](C)[C@H](O)[C@@H](C)/C=C(C)/C=C/[C@H](O)C(C)(C)c1cc(O)c([C@H]2O[C@@H](CO)C[C@@H](O)[C@@H]2O)c(=O)o1`, the result with Staphylococcus aureus [9], in the series with Caenorhabditis elegans, in the series with Rhodotorula glutinis [10], in the series on Mucor plumbeus [11], with Aspergillus fumigatus [12] and in the series on Candida albicans [13] was inactive. In addition, the outcome in the series on Cryptococcus neoformans [14] was inactive. For the same molecule, the MIC against Aspergillus fumigatus [6] amounted to 16.6 µg/mL (≈ 24.5 µM); in the series with Aspergillus fumigatus [7] it was 0.26 µg/mL (≈ 0.384 µM).

Consider `CC[C@H](C)C[C@@H](C)/C=C(C)/C=C/C[C@H](C)[C@H](O)[C@@H](C)/C=C(C)/C=C/[C@H](O)[C@@H](C)c1cc(O)c([C@H]2O[C@@H](CO)C[C@@H](O)[C@@H]2O)c(=O)o1`, for which the MIC was 0.52 µg/mL (≈ 0.804 µM) against Aspergillus fumigatus [2]; 1.04 µg/mL (≈ 1.61 µM) with Mucor plumbeus [3]; 4.15 µg/mL (≈ 6.42 µM) in the series with Cryptococcus neoformans [5]; 8.3 µg/mL (≈ 12.8 µM) with Candida albicans [15]; 0.52 µg/mL (≈ 0.804 µM) in the series on Aspergillus fumigatus [6]; 8.32 µg/mL (≈ 12.9 µM) in the series with Aspergillus fumigatus [7].

Turning to `CC[C@H](C)C[C@@H](C)/C=C(C)/C=C/C[C@H](C)[C@H](O)[C@@H](C)/C=C(C)/C=C/[C@H](O)C(C)(C)c1cc(O)c([C@H]2O[C@@H](CO)C[C@@H](O)[C@@H]2O)c(=O)o1`, the MIC against Aspergillus fumigatus [2] was determined as 2.08 µg/mL (≈ 3.15 µM); against Aspergillus fumigatus [4], 0.52 µg/mL (≈ 0.787 µM); against Staphylococcus aureus [8], 66.6 µg/mL (≈ 101 µM); against Cryptococcus neoformans [5] it was 4.15 µg/mL (≈ 6.28 µM); in the series on Aspergillus fumigatus [6], 0.52 µg/mL (≈ 0.787 µM); with Rhodotorula glutinis [1], 8.3 µg/mL (≈ 12.6 µM). Further, it took 0.52 µg/mL (≈ 0.787 µM) to inhibit growth against Aspergillus fumigatus [7] (MIC). Also, the outcome in the series on Caenorhabditis elegans, with Mucor plumbeus [11] and in the series on Candida albicans [13] was inactive.

Take `COc1cc2c(c(O)c1CO)C(=O)CC[C@H]2O`: the outcome in the series on KB 3-1, with Staphylococcus aureus [9], in the series on Caenorhabditis elegans and in the series with Rhodotorula glutinis [10] was inactive. The Activity result with L929 is listed as “Non-Toxic”.
